How the values were obtained:
[1] = cited from earlier work
[2] = In vitro release study of sorafenib and everolimus PLGA microspheres (sample-and-separate method, HPLC); settings: during in vitro release study
Protocol: The in vitro release study was carried out by sample-and-separate method. Briefly, 5 mg of microsphere sample (n=3) was taken into 100 mL flask and dispersed in 50 mL of release medium (0.5% Tween 20 and 0.1% sodium azide in phosphate-buffered saline (PBS at pH 7.4)). The flasks were placed in orbital agitating incubator at 37° C. and shacked at 100 rpm. At certain time points, 40 mL medium was taken and centrifuged at 3000 rpm for 2 min. From the supernatant, 30 mL was pipetted and replaced by same amount of the fresh media. In the collected supernatant, the content of the released SOF or EVE was analyzed by high performance liquid chromatography (HPLC).

[3] = system: MIA PaCa-2 pancreatic cell line; assay: In vitro cytotoxicity study, XTT assay; format: cell-based, human; settings: MIA PaCa-2 cells
Protocol: (§1) AGS cells (2×10^4 cells/well) were seeded in a 12-well plates (Corning, Millipore Sigma) with 1 mL of RPMI-1640 medium containing 10% FBS (Fetal Bovine Serum) and incubated for 1 day at 37° C. in a humidified incubator containing 5% CO2. AGS cells were allowed to proliferate for tests of in vitro antitumor activity. In triplicate wells, Group 1 (PBS), Group 2 (ISG formulation without everolimus or trametinib), Group 3 (ISG formulation with 90 μg of everolimus), Group 4 (ISG formulation with 90 μg of trametinib) and Group 5 (ISG formulation with 90 μg of everolimus and 90 μg of tramethinib), Group 6 (cell culture media without AGS cells) and Group 7 (10% ethanol in cell culture media) were added directly into chambers of the 12 well plate to examine the in vitro antitumor activity of these solutions against AGS cancer cells.
(§2) Each 12 well plate chamber was seeded with AGS cells (2×10^4 cells/well). The 12 well plates were maintained at 37° C. in a humidified incubator containing 5% CO2 for 48 hours prior to dosing. To create a drug depot at dosing time, 2 μL of each of the ISG everolimus formulation (90 μg everolimus/well), the ISG trametinib formulation (90 μg trametinib/well) and ISG everolimus-trametinib (90 μg everolimus+90 μg trametinib) formulations were added directly into the media of each corresponding plate well and maintained at 37° C. in a humidified incubator for the duration of the experiment. […]
(§3) Briefly, 100 μL of PBS solution containing the XTT substrate (50 mg/mL) was added to each 12-well plate and the plates were incubated at 37° C. for 4 h. […] The solution of each well was transferred to a 96-well plate (triplicate for wells 1 and 2 and duplicate for well 3) and read using a microplate reader (Bio-teck XLS800; Bio-Tek Instruments City of Industry, CA). The optical density of the formazan product of each well was measured at a wavelength of 450 nm and a reference wavelength of 630 nm. […]

[4] = system: SW403 colorectal cell line; assay: In vitro cytotoxicity study, XTT assay; format: cell-based, human; settings: SW403 cells
Protocol: as §1, §2, §3

NCI H441 lung cell line = assay: In vitro cytotoxicity study, XTT assay; format: cell-based, human; settings: NCI H441 cells
Protocol: as §1, §2, §3

AGS cells = assay: In vitro cytotoxicity study, XTT assay; format: cell-based, human
Protocol: as §1, with “cells. […]” for “cells.”
as §3

Structure (SMILES)	stability of EVE as free form in aqueous solution [1]	stability of EVE inside the microsphere [2]	in vitro cytotoxicity (XTT) [3]	in vitro cytotoxicity (XTT) [4]	in vitro cytotoxicity (XTT) (NCI H441 lung cell line)	in vitro cytotoxicity (XTT), ethanol treatment alone (AGS cells; 10% ethanol in cell culture media, 72 h time point)	in vitro cytotoxicity (XTT) (AGS cells; 24 and 72 h of exposure)
CO[C@H]1C[C@@H]2CC[C@@H](C)[C@@](O)(O2)C(=O)C(=O)N2CCCC[C@H]2C(=O)O[C@H]([C@H](C)C[C@@H]2CC[C@@H](OCCO)[C@H](OC)C2)CC(=O)[C@H](C)/C=C(\C)[C@@H](O)[C@@H](OC)C(=O)[C@H](C)C[C@H](C)/C=C/C=C/C=C/1C [EVE, everolimus]	degrade quickly in aqueous solution as free form	stable inside the microsphere					
CCO [ethanol]			ablation with a complete cytotoxic effect on the cancer cells	ablation with a complete cytotoxic effect on the cancer cells	ablation with a complete cytotoxic effect on the cancer cells	complete ablation and cytotoxicity of the cancer cells	ablation with a complete cytotoxic effect on the cancer cells
